Experimental data: article PMC11205194 (Marine Drugs, 2024)

System: SARS-CoV-2 3CLpro
Conditions: pH 7; for Inhibition of free 3CL protease by synthesized peptides: SD

| Molecule | Inhibition of the 3CLpro control's enzymatic activity | Inhibition of free 3CL protease by synthesized peptides |
| --- | --- | --- |
| COc1cccc2[nH]c(C(=O)N[C@@H](CC(C)C)C(=O)N[C@@H](C[C@@H]3CCNC3=O)C(=O)CO)cc12 [PF-00835231, reference compound] | 94.9% | – |
| EVLEFFKYIE [PEP 5] | – | 0.01 ± 3.8% |
| EVLEFFKYLE [PEP 7] | – | 7.6 ± 1.3% |
| VVGVVVY [PEP 1, Val-Val-Gly-Val-Val-Val-Tyr] | – | 9.3 ± 5.7% |
